Data reported in PubChem BioAssay AID1963981 (Molecular Pharmacology Branch, DTP, NCI, 2024).

Test system: 354836-022-R-J1-PDC multicell spheroid viability
Assay: Anticancer human tumor 354836-022-R-J1-PDC patient-derived head and neck squamous cell carcinoma cell line growth inhibition [PI3K]
Settings: for IC50: curve of first compound; for viability, T/C: stronger effect = lower value
Excerpt: Combinatorial screen of targeted agents with the PI3K inhibitors inavolisib, alpelisib, duvelisib, and copanlisib in multi-cell type tumor spheroids
A high-throughput screen of multi-cell type tumor spheroids was designed to identify active combinations of targeted small molecules and PI3K pathway inhibitors. Complex spheroids include a stromal component modeled by human endothelial cells (HUVEC) and fibroblasts modeled by human mesenchymal stem cells (MSCs). The concentration ranges selected for each drug and investigational agent were based upon clinically achievable concentrations if the clinical Cmax of the agent was known.
Compounds. The drugs and investigational agents: inavolisib (NSC800729), alpelisib (NSC765974), duvelisib (NSC772469), copanlisib (NSC816437), ipatasertib (NSC767898), afuresertib (NSC778305), talazoparib (NSC767125), sapanisertib (NSC764658), selumetinib (NSC741078), tovorafenib (DAY101, NSC766906), vemurafenib (NSC761431), ravoxertinib (NSC781343), sotorasib (NSC818433), MRTX1133 (NSC 836407), abemaciclib (NSC 768073), palbociclib (NSC758247), venetoclax (NSC 766270), SY5609 (NSC837396), enzalutamide (NSC755605), and darolutamide (NSC825331), were obtained from the National Cancer Institute (NCI) Developmental Therapeutics Program Chemical Repository. The FDA-approved anticancer drug set is available from the NCI Developmental Therapeutics Program. […] The stock solutions were prepared in dimethyl sulfoxide (DMSO, Sigma-Aldrich, St. Louis, MO, cat. D2650) at 800-fold the tested concentration and stored at -70 degrees C prior to their use. All drugs and investigational agents were tested over a range starting from a high concentration at or near the clinical Cmax and decreasing in half-log increments. If the clinical Cmax for an agent had not been determined, the highest concentration tested was 10 microM.
Cell Culture. All cells were maintained in an incubator at 37 degrees C and 5% CO2 with 95% humidity. The PDC lines were cultured according to standard operating procedures established by the NCI PDMR (https://pdmr.cancer.gov/sops/default.htm). All PDCs were thawed and cultured in Matrigel-coated flasks prepared with a working solution of 1X Ham's F-12 nutrient mix, without supplementation (Invitrogen, Waltham, MA, cat. 11765054), 100 U/mL penicillin-streptomycin (Invitrogen, cat. 15140122), and 2.5% Matrigel (Corning Inc., Corning, NY, cat. 354248) for the first three passages. The 354836-022-R-J1-PDC, 475296-252-R-J1-PDC, and 997726-040-R-J2-PDC lines were cultured in 6A media, which includes advanced DMEM/F-12 (Thermo Fisher Scientific, cat. 12634028), 10 mM HEPES (Thermo Fisher Scientific, cat. 15630080), 1X GlutaMAX supplement (Thermo Fisher Scientific, cat. 35050061), 0.1 mg/mL primocin (InvivoGen, San Diego, CA, cat. ant-pm-2), 10% defined fetal bovine serum, heat inactivated (HyClone Laboratories Inc., Logan, UT, cat. SH30070.03HI), 50% L-WRN conditioned media (ATCC, cat. CRL-3276), 1.25 mM N-Acetyl-L-cysteine (Sigma-Aldrich, cat. A9165), 10 mM nicotinamide (Sigma-Aldrich, cat. N0636), 1X B-27 supplement (Thermo Fisher Scientific, cat. 17504044), 1X N-2 supplement (Thermo Fisher Scientific, cat. 17502048), and 10 microM Y-27632 dihydrochloride (Tocris Bioscience, Bristol, United Kingdom, cat. 1254). The 624824-186-R-J2-PDC line was cultured in 6C/Colon 1B media, which includes all 6A media components plus 50 ng/mL human EGF recombinant protein (Thermo Fisher Scientific, cat. PHG0311). […]
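Note: spheroids exposed to agents for seven days before the viability read.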

Compound `CNC(=O)c1ccc(N2C(=S)N(c3ccc(C#N)c(C(F)(F)F)c3)C(=O)C2(C)C)cc1F` + Cc1nc(NC(=O)N2CCCC2C(N)=O)sc1-c1ccnc(C(C)(C)C(F)(F)F)c1 has an IC50 (second compound 0.0316 µM) of over 10 µM, an IC50 (second compound 0.1 µM) of over 10 µM and an IC50 (second compound 0.316 µM) of over 10 µM. For the same compound, the IC50 (second compound 1 µM) was over 10 µM, the IC50 (second compound 3.16 µM) was over 10 µM and the IC50 (second compound 10 µM) was under 0.0316 µM. For the same compound, the viability, T/C (second compound 0.0316 µM, first compound 0.0316 µM) was 108%, the viability, T/C (second compound 0.0316 µM, first compound 0.1 µM) was 92.4% and the viability, T/C (second compound 0.0316 µM, first compound 0.316 µM) was 100%. For the same compound, the viability, T/C (second compound 0.0316 µM, first compound 1 µM) was 96%, the viability, T/C (second compound 0.0316 µM, first compound 3.16 µM) was 123% and the viability, T/C (second compound 0.0316 µM, first compound 10 µM) was 108%. It also gave a viability, T/C (second compound 0.1 µM, first compound 0.0316 µM) of 95.5%, a viability, T/C (second compound 0.1 µM, first compound 0.1 µM) of 93.4% and a viability, T/C (second compound 0.1 µM, first compound 0.316 µM) of 111%. For the same compound, the viability, T/C (second compound 0.1 µM, first compound 1 µM) was 87.9%, the viability, T/C (second compound 0.1 µM, first compound 3.16 µM) was 109% and the viability, T/C (second compound 0.1 µM, first compound 10 µM) was 99.2%. It also gave a viability, T/C (second compound 0.316 µM, first compound 0.0316 µM) of 86.8%, a viability, T/C (second compound 0.316 µM, first compound 0.1 µM) of 99.6% and a viability, T/C (second compound 0.316 µM, first compound 0.316 µM) of 89.1%. It also gave a viability, T/C (second compound 0.316 µM, first compound 1 µM) of 96.7%, a viability, T/C (second compound 0.316 µM, first compound 3.16 µM) of 98.2% and a viability, T/C (second compound 0.316 µM, first compound 10 µM) of 88%. For the same compound, the viability, T/C (second compound 1 µM, first compound 0.0316 µM) was 93.5%, the viability, T/C (second compound 1 µM, first compound 0.1 µM) was 84.5% and the viability, T/C (second compound 1 µM, first compound 0.316 µM) was 76.3%. The viability, T/C (second compound 1 µM, first compound 1 µM) was 98.7%, the viability, T/C (second compound 1 µM, first compound 3.16 µM) was 87% and the viability, T/C (second compound 1 µM, first compound 10 µM) was 82.4%. It also gave a viability, T/C (second compound 3.16 µM, first compound 0.0316 µM) of 54.5%, a viability, T/C (second compound 3.16 µM, first compound 0.1 µM) of 71.1% and a viability, T/C (second compound 3.16 µM, first compound 0.316 µM) of 63.3%. It also gave a viability, T/C (second compound 3.16 µM, first compound 1 µM) of 71.3%, a viability, T/C (second compound 3.16 µM, first compound 3.16 µM) of 68% and a viability, T/C (second compound 3.16 µM, first compound 10 µM) of 72.1%. The viability, T/C (second compound 10 µM, first compound 0.0316 µM) was 35.1%, the viability, T/C (second compound 10 µM, first compound 0.1 µM) was 35% and the viability, T/C (second compound 10 µM, first compound 0.316 µM) was 35.7%. For the same compound, the viability, T/C (second compound 10 µM, first compound 1 µM) was 39.8%, the viability, T/C (second compound 10 µM, first compound 3.16 µM) was 48.9% and the viability, T/C (second compound 10 µM, first compound 10 µM) was 37.5%.
